This is an account of results in US20230201124A1, “LUBRICANT FOR PHARMACEUTICALS AND NUTRACEUTICALS” (JRS Pharma GmbH & Co. KG, priority 2021, published 2023).

Series [1] can be described thus: Tablet hardness versus compression force of lubricated tablets. Type of series: physicochemical. The conditions noted are these: for direction of change in tablet hardness: Example 8: lowest level/shortest blend time versus highest level/longest blend time. As for the experimental part: Blends consisting of five separate levels of each lubricant type were prepared, with the lubricant blending time set for up to 60 minutes. After the addition of lubricant to the ibuprofen-MCC premix and the initiation of blending, a portion of each blend (enough to make a representative number of tablets) was withdrawn at each of 5 intervals (5, 15, 30, 45 and 60 minutes). […]
Tablet hardnesses and ejection forces were measure for each variant.

A short description of series [2]: Lubricant-API stability of 1:1 aspirin-lubricant blends by NIR spectra. Type of series: physicochemical. The conditions noted are these: all tested storage conditions, 2 months. The source says:
Example 9 is a study which examined the lubricant-API stability of rice bran wax, in comparison with magnesium stearate. Aspirin was chosen as a model API for the study. Magnesium stearate is known to interact unfavorably with aspirin. Aspirin also has a known tendency to convert to salicylic acid in the presence of moisture.
Aspirin and lubricant were ground together at a 1:1 ratio by weight with a glass mortar and pestle, then portioned into three vials which were labeled for room temperature (ambient) storage or for storage closed or open in a stability chamber at 40° C. and 75% RH. Near-IR (NIR) spectra were obtained periodically over two months of storage under these three different conditions.
FIG. 22 is an NIR spectra of the study components of Example 9, and provides the following depictions: aspirin (close dash), magnesium stearate (far dash), rice bran wax (solid) and salicylic acid (dotted). Near IR spectra were obtained on a Metrohm 6500 RCA (Rapid Content Analyzer) reflectance NIR (JRS #1219) and a standard normal variate (SNV) pre-processing routine was used to normalize the spectra for comparison.

The mark [3] stands for this setting: Example 8: lowest level/shortest blend time versus highest level/longest blend time (1.0%, 60 min), at each compression force.

Bounds are passed on as bounds.

Consider `CCCCCCCCCCCCCCCCCCOC(=O)/C=C/C(=O)[O-].[Na+]` [Pruv®, sodium stearyl fumarate], for which the “direction of change in tablet hardness” value in series [1] is “drop in tablet hardness”. Further, in series [1] (setting [3]), the “drop in tablet hardness” value is recorded as < 3 N.

For the compound magnesium stearate, the tablet hardness result was “softest tablets” in series [1] (Example 8: 1% lubricant, 60 minute blend, FIG. 18); “lower tablet hardness values than sodium stearyl fumarate and hydrogenated vegetable oil” in series [1] (Example 8: highest lubricant level (1.0%), 5 minute blend, FIG. 17). For the same compound, the “drop in tablet hardness” value in series [1] (Example 8: 15 kN compaction force, 0.125%/5 min versus 1.0%/60 min, FIG. 19) is on record as ~16 N; in series [1] (setting [3]), 11-20 N. Also, the “direction of change in tablet hardness” value in series [1] is recorded as “drop in tablet hardness”. Also, the “interaction between lubricant and aspirin” value in series [2] was “interacts with aspirin”.
